Positions of bridges follow the written chain, without caps; N, C: chain ends. Non-standard residues stand in square brackets, D forms with d. Residues, ends and D or L forms follow the SMILES beside them. Phe(3,4,5-F3) = N[C@@H](Cc1cc(F)c(F)c(F)c1)C(=O)O; Trp(1-Me) = Cn1cc(C[C@H](N)C(=O)O)c2ccccc21; Phe(3-Me) = Cc1cccc(C[C@H](N)C(=O)O)c1; 1Nal = N[C@@H](Cc1cccc2ccccc12)C(=O)O; 2Nal = N[C@@H](Cc1ccc2ccccc2c1)C(=O)O; Cit = NC(=O)NCCC[C@H](N)C(=O)O; Ahp(2) = CCCCC[C@H](N)C(=O)O; NMeNle = CCCC[C@H](NC)C(=O)O; NHexGly = CCCCCCNCC(=O)O; Nle = CCCC[C@H](N)C(=O)O; Orn = NCCC[C@H](N)C(=O)O
The molecules below were run against T1, mouse VISTA (mVISTA) (Mus musculus, UniProt Q9D659) (assay: Cell-Based Binding High-Content Assay For mVISTA (HC CBA mVISTA)). Settings: the 19th table, scaffold drawing 22; read-out: HC CBA mVISTA IC50.
T1 construct: expressed in transfected cells; host or cells: Human embryonic kidney 293T cells
T1 sequence (Q9D659 33-308): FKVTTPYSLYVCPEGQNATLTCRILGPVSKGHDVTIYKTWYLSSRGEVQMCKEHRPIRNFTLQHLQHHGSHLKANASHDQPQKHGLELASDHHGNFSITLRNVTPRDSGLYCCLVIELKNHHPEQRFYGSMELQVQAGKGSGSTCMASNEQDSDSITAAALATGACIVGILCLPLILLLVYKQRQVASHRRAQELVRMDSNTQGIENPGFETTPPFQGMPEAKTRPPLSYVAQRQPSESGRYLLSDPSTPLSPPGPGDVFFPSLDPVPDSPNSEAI
Method in brief: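 Competition of compound with a biotinylated peptide (final 2 nM, 30 min at RT) for binding to mVISTA on 293T cells, run under no-wash or wash (1 h compound preincubation then removal) formats. Readout by Alexa 647–streptavidin imaging on a high-content platform; four-parameter logistic fit gave IC50.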

SMILES	IC50 [nM]
CCCCCCN1CC(=O)N[C@@H](Cc2ccc(O)cc2)C(=O)N[C@@H](CCCCC)C(=O)N[C@@H](CC(N)=O)C(=O)N[C@@H](CCCNC(=N)N)C(=O)N(C)[C@@H](CCCC)C(=O)N[C@@H](CCCCC)C(=O)N2CCC[C@H]2C(=O)N[C@@H](C(C)C)C(=O)N[C@@H](CC(=O)O)C(=O)N[C@H](C(=O)NCC(=O)O)CSCC(=O)N[C@@H](Cc2cccc(C)c2)C(=O)N[C@@H](Cc2c[nH]c3ccccc23)C(=O)N[C@@H](CC(=O)O)C1=O [compound 1441] ({CH2CO}-[Phe(3-Me)]WD[NHexGly]Y[Ahp(2)]NR[NMeNle][Ahp(2)]PVDCG-OH; thioether N-14)	10.2
CCCCCCN1CC(=O)N[C@@H](Cc2ccc(O)cc2)C(=O)N[C@@H](CCCC)C(=O)N[C@@H](CC(N)=O)C(=O)N[C@@H](CCCNC(=N)N)C(=O)N(C)[C@@H](CCCC)C(=O)N[C@@H](CCCCC)C(=O)N2CCC[C@H]2C(=O)N[C@@H](C(C)C)C(=O)N[C@@H](CC(=O)O)C(=O)N[C@H](C(=O)NCC(=O)O)CSCC(=O)N[C@@H](Cc2cccc(C)c2)C(=O)N[C@@H](Cc2c[nH]c3ccccc23)C(=O)N[C@@H](CC(=O)O)C1=O [compound 1442] ({CH2CO}-[Phe(3-Me)]WD[NHexGly]Y[Nle]NR[NMeNle][Ahp(2)]PVDCG-OH; thioether N-14)	27.7
CCCCCCN1CC(=O)N[C@@H](Cc2ccc(O)cc2)C(=O)N[C@@H](CCCC)C(=O)N[C@@H](CC(N)=O)C(=O)N[C@@H](CCCNC(N)=O)C(=O)N(C)[C@@H](CCCC)C(=O)N[C@@H](CCCCC)C(=O)N2CCC[C@H]2C(=O)N[C@@H](C(C)C)C(=O)N[C@@H](CC(=O)O)C(=O)N[C@H](C(=O)NCC(=O)O)CSCC(=O)N[C@@H](Cc2cccc(C)c2)C(=O)N[C@@H](Cc2c[nH]c3ccccc23)C(=O)N[C@@H](CC(=O)O)C1=O [compound 1443] ({CH2CO}-[Phe(3-Me)]WD[NHexGly]Y[Nle]N[Cit][NMeNle][Ahp(2)]PVDCG-OH; thioether N-14)	21.2

Second part, the molecule after the results:

IC50 [nM]	SMILES
13.3	CCCCCCN1CC(=O)N[C@@H](Cc2ccc(O)cc2)C(=O)N[C@@H](CCCCC)C(=O)N[C@@H](CC(N)=O)C(=O)N[C@@H](CCCNC(=N)N)C(=O)N(C)[C@@H](CCCC)C(=O)N[C@@H](CCCCC)C(=O)N2CCC[C@H]2C(=O)N[C@@H](C(C)C)C(=O)N[C@@H](CC(=O)O)C(=O)N[C@H](C(=O)N[C@@H](CO)C(=O)O)CSCC(=O)N[C@@H](Cc2cccc(C)c2)C(=O)N[C@@H](Cc2c[nH]c3ccccc23)C(=O)N[C@@H](CC(=O)O)C1=O [compound 1444] ({CH2CO}-[Phe(3-Me)]WD[NHexGly]Y[Ahp(2)]NR[NMeNle][Ahp(2)]PVDCS-OH; thioether N-14)
9.9	CCCCCCN1CC(=O)N[C@@H](Cc2ccc(O)cc2)C(=O)N[C@@H](CCCC)C(=O)N[C@@H](CC(=O)O)C(=O)N[C@@H](CCCNC(=N)N)C(=O)N(C)[C@@H](CCCC)C(=O)N[C@@H](CCCCC)C(=O)N2CCC[C@H]2C(=O)N[C@@H](C(C)C)C(=O)N[C@@H](CC(=O)O)C(=O)N[C@H](C(=O)N[C@@H](CO)C(N)=O)CSCC(=O)N[C@@H](Cc2cccc(C)c2)C(=O)N[C@@H](Cc2c[nH]c3ccccc23)C(=O)N[C@@H](CC(=O)O)C1=O [compound 1445] ({CH2CO}-[Phe(3-Me)]WD[NHexGly]Y[Nle]DR[NMeNle][Ahp(2)]PVDCS-NH2; thioether N-14)
9.1	CCCCCCN1CC(=O)N[C@@H](Cc2ccc(O)cc2)C(=O)N[C@@H](CCCC)C(=O)N[C@@H](CC(=O)O)C(=O)N[C@@H](CCCN)C(=O)N(C)[C@@H](CCCC)C(=O)N[C@@H](CCCCC)C(=O)N2CCC[C@H]2C(=O)N[C@@H](C(C)C)C(=O)N[C@@H](CC(=O)O)C(=O)N[C@H](C(=O)N[C@@H](CO)C(N)=O)CSCC(=O)N[C@@H](Cc2cccc(C)c2)C(=O)N[C@@H](Cc2c[nH]c3ccccc23)C(=O)N[C@@H](CC(=O)O)C1=O [compound 1446] ({CH2CO}-[Phe(3-Me)]WD[NHexGly]Y[Nle]D[Orn][NMeNle][Ahp(2)]PVDCS-NH2; thioether N-14)
15.3	CCCCCCN1CC(=O)N[C@@H](Cc2ccc(O)cc2)C(=O)N[C@@H](CCCC)C(=O)N[C@@H](CC(=O)O)C(=O)N[C@@H](CCCNC(N)=O)C(=O)N(C)[C@@H](CCCC)C(=O)N[C@@H](CCCCC)C(=O)N2CCC[C@H]2C(=O)N[C@@H](C(C)C)C(=O)N[C@@H](CC(=O)O)C(=O)N[C@H](C(=O)N[C@@H](CC(=O)O)C(N)=O)CSCC(=O)N[C@@H](Cc2cccc(C)c2)C(=O)N[C@@H](Cc2ccc(O)cc2)C(=O)N[C@@H](CC(=O)O)C1=O [compound 1447] ({CH2CO}-[Phe(3-Me)]YD[NHexGly]Y[Nle]D[Cit][NMeNle][Ahp(2)]PVDCD-NH2; thioether N-14)
14.2	CCCCCCN1CC(=O)N[C@@H](Cc2ccc(O)cc2)C(=O)N[C@@H](CCCC)C(=O)N[C@@H](CC(=O)O)C(=O)N[C@@H](CCCNC(=N)N)C(=O)N(C)[C@@H](CCCC)C(=O)N[C@@H](CCCCC)C(=O)N2CCC[C@H]2C(=O)N[C@@H](C(C)C)C(=O)N[C@@H](CC(=O)O)C(=O)N[C@H](C(=O)N[C@@H](CC(=O)O)C(N)=O)CSCC(=O)N[C@@H](Cc2cccc(C)c2)C(=O)N[C@@H](Cc2ccc(O)cc2)C(=O)N[C@@H](CC(=O)O)C1=O [compound 1448] ({CH2CO}-[Phe(3-Me)]YD[NHexGly]Y[Nle]DR[NMeNle][Ahp(2)]PVDCD-NH2; thioether N-14)
10.8	CCCCCCN1CC(=O)N[C@@H](Cc2ccc(O)cc2)C(=O)N[C@@H](CCCC)C(=O)N[C@@H](CC(=O)O)C(=O)N[C@@H](CCCN)C(=O)N(C)[C@@H](CCCC)C(=O)N[C@@H](CCCCC)C(=O)N2CCC[C@H]2C(=O)N[C@@H](C(C)C)C(=O)N[C@@H](CC(=O)O)C(=O)N[C@H](C(=O)N[C@@H](CC(=O)O)C(N)=O)CSCC(=O)N[C@@H](Cc2cccc(C)c2)C(=O)N[C@@H](Cc2ccc(O)cc2)C(=O)N[C@@H](CC(=O)O)C1=O [compound 1449] ({CH2CO}-[Phe(3-Me)]YD[NHexGly]Y[Nle]D[Orn][NMeNle][Ahp(2)]PVDCD-NH2; thioether N-14)
7	CCCCCCN1CC(=O)N[C@@H](Cc2ccc(O)cc2)C(=O)N[C@@H](CCCC)C(=O)N[C@@H](CC(N)=O)C(=O)N[C@@H](CCCNC(=N)N)C(=O)N(C)[C@@H](CCCC)C(=O)N[C@@H](CCCCC)C(=O)N2CCC[C@H]2C(=O)N[C@@H](C(C)C)C(=O)N[C@@H](CC(=O)O)C(=O)N[C@H](C(=O)NCC(=O)O)CSCC(=O)N[C@@H](Cc2cccc(C)c2)C(=O)N[C@@H](Cc2ccc(O)cc2)C(=O)N[C@@H](CC(=O)O)C1=O [compound 1450] ({CH2CO}-[Phe(3-Me)]YD[NHexGly]Y[Nle]NR[NMeNle][Ahp(2)]PVDCG-OH; thioether N-14)
8.6	CCCCCCN1CC(=O)N[C@@H](Cc2ccc(O)cc2)C(=O)N[C@@H](CCCC)C(=O)N[C@@H](CC(=O)O)C(=O)N[C@@H](CCCNC(=N)N)C(=O)N(C)[C@@H](CCCC)C(=O)N[C@@H](CCCCC)C(=O)N2CCC[C@H]2C(=O)N[C@@H](C(C)C)C(=O)N[C@@H](CC(=O)O)C(=O)N[C@H](C(=O)N[C@@H](CO)C(N)=O)CSCC(=O)N[C@@H](Cc2cccc(C)c2)C(=O)N[C@@H](Cc2ccc(O)cc2)C(=O)N[C@@H](CC(=O)O)C1=O [compound 1451] ({CH2CO}-[Phe(3-Me)]YD[NHexGly]Y[Nle]DR[NMeNle][Ahp(2)]PVDCS-NH2; thioether N-14)

Same assay, conditions: the 20th table, scaffold drawing 23; read-out: HC CBA mVISTA IC50

IC50 [nM]	SMILES
19.9	CCCCCCN1CC(=O)N[C@@H](Cc2ccc(O)cc2)C(=O)N[C@@H](CCCC)C(=O)N[C@@H](CC(N)=O)C(=O)N[C@@H](CCCNC(=N)N)C(=O)N[C@@H](CC(C)C)C(=O)N[C@@H](CCCCC)C(=O)N2CCC[C@H]2C(=O)N[C@@H](C(C)C)C(=O)N[C@@H](CO)C(=O)N[C@H](C(=O)NCC(=O)O)CSCC(=O)N[C@@H](Cc2cccc3ccccc23)C(=O)N[C@@H](Cc2ccc(O)cc2)C(=O)N[C@@H](CC(=O)O)C1=O [compound 1452] ({CH2CO}-[1Nal]YD[NHexGly]Y[Nle]NRL[Ahp(2)]PVSCG-OH; thioether N-14)
3.6	CCCCCCN1CC(=O)N[C@@H](Cc2ccc(O)cc2)C(=O)N[C@@H](CCCC)C(=O)N[C@@H](CC(N)=O)C(=O)N[C@@H](CCCNC(=N)N)C(=O)N[C@@H](CC(C)C)C(=O)N[C@@H](CCCCC)C(=O)N2CCC[C@H]2C(=O)N[C@@H](C(C)C)C(=O)N[C@@H](CC(=O)O)C(=O)N[C@H](C(=O)NCC(=O)O)CSCC(=O)N[C@@H](Cc2ccc3ccccc3c2)C(=O)N[C@@H](Cc2cn(C)c3ccccc23)C(=O)N[C@@H](CC(=O)O)C1=O [compound 1454] ({CH2CO}-[2Nal][Trp(1-Me)]D[NHexGly]Y[Nle]NRL[Ahp(2)]PVDCG-OH; thioether N-14)
3.5	CCCCCCN1CC(=O)N[C@@H](Cc2ccc(O)cc2)C(=O)N[C@@H](CCCC)C(=O)N[C@@H](CC(N)=O)C(=O)N[C@@H](CCCNC(=N)N)C(=O)N[C@@H](CC(C)C)C(=O)N[C@@H](CCCCC)C(=O)N2CCC[C@H]2C(=O)N[C@@H](C(C)C)C(=O)N[C@@H](CC(=O)O)C(=O)N[C@H](C(=O)NCC(=O)O)CSCC(=O)N[C@@H](Cc2ccccc2)C(=O)N[C@@H](Cc2cn(C)c3ccccc23)C(=O)N[C@@H](CC(=O)O)C1=O [compound 1455] ({CH2CO}-F[Trp(1-Me)]D[NHexGly]Y[Nle]NRL[Ahp(2)]PVDCG-OH; thioether N-14)
17	CCCCCCN1CC(=O)N[C@@H](Cc2ccc(O)cc2)C(=O)N[C@@H](CCCC)C(=O)N[C@@H](CC(N)=O)C(=O)N[C@@H](CCCNC(=N)N)C(=O)N[C@@H](CC(C)C)C(=O)N[C@@H](CCCCC)C(=O)N2CCC[C@H]2C(=O)N[C@@H](C(C)C)C(=O)N[C@@H](CC(=O)O)C(=O)N[C@H](C(=O)NCC(=O)O)CSCC(=O)N[C@@H](Cc2cc(F)c(F)c(F)c2)C(=O)N[C@@H](Cc2c[nH]c3ccccc23)C(=O)N[C@@H](CC(=O)O)C1=O [compound 1456] ({CH2CO}-[Phe(3,4,5-F3)]WD[NHexGly]Y[Nle]NRL[Ahp(2)]PVDCG-OH; thioether N-14)
